Source: patent publication US20230080054A1 (ILDONG PHARMACEUTICAL CO., LTD., priority 2021, published 2023)

How the values were obtained:
[1] = molecular target: T1, human ANO6 (Homo sapiens, UniProt Q4KMQ2); assay: LACT C2 assay (phosphatidylserine scramblase function assay); assay type: cell-based; conditions: FRT cells expressing human ANO6, 10 μM ionomycin; for inhibition at 0.1 µM: test compound 100 nM, read-out: Inhibition Level 100 nM; for inhibition at 1 µM: test compound 1 μM, read-out: Inhibition Level 1 μM
T1 construct: expressed in transfected cells
T1 sequence (Q4KMQ2 1-931 isoform Q4KMQ2-2): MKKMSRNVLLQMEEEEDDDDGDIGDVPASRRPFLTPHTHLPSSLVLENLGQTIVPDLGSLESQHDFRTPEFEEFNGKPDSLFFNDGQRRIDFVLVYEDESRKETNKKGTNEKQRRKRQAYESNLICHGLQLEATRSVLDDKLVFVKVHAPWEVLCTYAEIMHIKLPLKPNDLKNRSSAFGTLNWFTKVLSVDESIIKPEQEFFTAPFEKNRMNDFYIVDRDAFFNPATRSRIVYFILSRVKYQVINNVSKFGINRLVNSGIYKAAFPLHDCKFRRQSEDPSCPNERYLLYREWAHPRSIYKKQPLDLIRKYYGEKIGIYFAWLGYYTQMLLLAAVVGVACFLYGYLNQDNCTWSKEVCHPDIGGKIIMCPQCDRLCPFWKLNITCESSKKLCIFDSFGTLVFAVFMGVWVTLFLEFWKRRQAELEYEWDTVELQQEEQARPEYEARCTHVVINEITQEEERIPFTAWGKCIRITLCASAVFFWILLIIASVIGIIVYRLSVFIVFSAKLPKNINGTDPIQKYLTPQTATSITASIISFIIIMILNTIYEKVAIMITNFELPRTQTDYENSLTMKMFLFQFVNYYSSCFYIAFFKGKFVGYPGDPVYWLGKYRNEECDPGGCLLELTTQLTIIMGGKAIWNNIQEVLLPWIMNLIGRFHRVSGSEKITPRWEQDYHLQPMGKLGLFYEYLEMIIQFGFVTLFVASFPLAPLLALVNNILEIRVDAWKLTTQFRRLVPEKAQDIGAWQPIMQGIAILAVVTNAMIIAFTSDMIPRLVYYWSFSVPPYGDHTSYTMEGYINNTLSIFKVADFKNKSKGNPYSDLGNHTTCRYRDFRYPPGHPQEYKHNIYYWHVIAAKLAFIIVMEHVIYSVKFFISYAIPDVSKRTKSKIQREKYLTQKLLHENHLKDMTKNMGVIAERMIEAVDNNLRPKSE
In short: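 FRT cells stably expressing human ANO6 were pretreated with compound (1% DMSO) for 10 min, then stimulated with 10 μM ionomycin for 10 min. Surface phosphatidylserine was stained with 500 nM Lact-C2-GFP and quantified by imaging. Inhibition was scaled between unstimulated (100%) and ionomycin-only (0%) controls, averaged over triplicates.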

[2] = molecular target: T1, human ANO6; assay: YFP quenching assay (ANO6 ion channel activity); assay type: cell-based; conditions: 10 μM ionomycin; for inhibition at 1 µM: test compound 1 μM, read-out: Inhibition Level 1 μM; for inhibition at 30 µM: test compound 30 μM, read-out: Inhibition Level 30 μM
In short: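 FRT cells stably expressing human ANO6 and YFP-H148Q/I152L/F46L, preincubated 10 min at 40° C with compounds (1% DMSO) in PBS. Quench read every 0.4 s after injecting 140 mM SCN- with 10 μM ionomycin; % inhibition from the 3.6–7.6 s fluorescence difference, normalised to no-ionomycin (100%) and ionomycin-only (0%) wells, duplicate or triplicate.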

| Compound | inhibition at 0.1 µM [1] | inhibition at 1 µM [1] | inhibition at 1 µM [2] | inhibition at 30 µM [2] |
| --- | --- | --- | --- | --- |
| O=C(Nc1cccc(F)c1)c1cccc(Nc2ccc(-c3ccccc3)nn2)c1 [Compound 29, N-(3-fluorophenyl)-3-[(6-phenylpyridazin-3-yl)amino]benzamide] | 30 to 60% | ≥ 60% | ≥ 60% | ≥ 60% |
| CC(C)(C)CNC(=O)c1cccc(Nc2ccc(-c3ccccc3)nn2)c1 [Compound 24, N-(2,2-dimethylpropyl)-3-[(6-phenylpyridazin-3-yl)amino]benzamide] | – | < 30% | 30 to 60% | ≥ 60% |
| O=C(NCCc1ccccc1)c1cccc(Nc2ncc(-c3ccccc3)cn2)c1 [Compound 52, N-(2-phenylethyl)-3-[(5-phenylpyrimidin-2-yl)amino]benzamide] | – | 30 to 60% | ≥ 60% | – |
| O=C(NCCc1ccccc1)c1cccc(Nc2ccc(-c3ccccc3)cn2)c1 [Compound 114, N-(2-phenylethyl)-3-[(5-phenylpyridin-2-yl)amino]benzamide] | < 30% | ≥ 60% | ≥ 60% | – |
| O=C(NC1CC1)c1cccc(Nc2ccc(-c3ccccc3)nn2)c1 [Compound 38, N-cyclopropyl-3-[(6-phenylpyridazin-3-yl)amino]benzamide] | – | < 30% | ≥ 60% | ≥ 60% |
| Cc1ccc(CNC(=O)c2cccc(Nc3ncc(-c4ccoc4C)cn3)c2)o1 [Compound 112, N-[(5-methylfuran-2-yl)methyl]-3-{[5-(2-methylfuran-3-yl)pyrimidin-2-yl]amino}benzamide] | – | 30 to 60% | ≥ 60% | – |
| O=C(NC1CCC1)c1cccc(Nc2ccc(-c3ccccc3)nn2)c1 [Compound 25, N-cyclobutyl-3-[(6-phenylpyridazin-3-yl)amino]benzamide] | – | 30 to 60% | 30 to 60% | ≥ 60% |
| Cc1ccc(CNC(=O)c2cccc(Nc3ncc(-c4ccccc4)cn3)c2)o1 [Compound 2, N-[(5-methylfuran-2-yl)methyl]-3-[(5-phenylpyrimidin-2-yl)amino]benzamide] | < 30% | ≥ 60% | 30 to 60% | ≥ 60% |
| O=C(NCCCc1ccccc1)c1cccc(Nc2ccc(-c3ccccc3)cc2)c1 [Compound 53, 3-({[1,1′-biphenyl]-4-yl}amino)-N-(3-phenylpropyl)benzamide] | – | ≥ 60% | ≥ 60% | – |
| O=C(NCCC1CCCCC1)c1cccc(Nc2ncc(-c3ccccc3)cn2)c1 [Compound 81, N-(2-cyclohexylethyl)-3-[(5-phenylpyrimidin-2-yl)amino]benzamide] | 30 to 60% | ≥ 60% | ≥ 60% | – |
| O=C(NCc1cccs1)c1cccc(Nc2ccc(-c3ccccc3)nn2)c1 [Compound 39, 3-[(6-phenylpyridazin-3-yl)amino]-N-[(thiophen-2-yl)methyl]benzamide] | – | < 30% | ≥ 60% | ≥ 60% |
| O=C(N[C@@H]1C[C@H]1c1ccccc1)c1cccc(Nc2ccc(-c3ccccc3)cn2)c1 [Compound 115, N-[(1R,2S)-2-phenylcyclopropyl]-3-[(5-phenylpyridin-2-yl)amino]benzamide] | ≥ 60% | ≥ 60% | ≥ 60% | – |
| O=C(NCC1CCCC1)c1cccc(Nc2ccc(-c3ccccc3)nn2)c1 [Compound 33, N-(cyclopentylmethyl)-3-[(6-phenylpyridazin-3-yl)amino]benzamide] | < 30% | ≥ 60% | ≥ 60% | ≥ 60% |
| Cc1ccc(CNC(=O)c2cccc(Nc3ccc(-c4ccc(Cl)cc4)nn3)c2)o1 [Compound 75, 3-{[6-(4-chlorophenyl)pyridazin-3-yl]amino}-N-[(5-methylfuran-2-yl)methyl]benzamide] | – | 30 to 60% | 30 to 60% | – |

Continued, values first:

| inhibition at 0.1 µM [1] | inhibition at 1 µM [1] | inhibition at 1 µM [2] | inhibition at 30 µM [2] | Compound |
| --- | --- | --- | --- | --- |
| < 30% | < 30% | 30 to 60% | ≥ 60% | CSc1ccc(CNC(=O)c2cccc(Nc3ccc(-c4ccc(F)cc4)nn3)c2)cc1 [Compound A27] |
| < 30% | < 30% | ≥ 60% | ≥ 60% | CC(C)NC(=O)c1cccc(Nc2ccc(-c3ccccc3)nn2)c1 [Compound A12] |
| < 30% | ≥ 60% | ≥ 60% | ≥ 60% | O=C(NCCC1=CCCCC1)c1cccc(Nc2ccc(-c3ccccc3)nn2)c1 [Compound A40] |
| 30 to 60% | ≥ 60% | ≥ 60% | ≥ 60% | O=C(NCCc1ccc(Cl)cc1)c1cccc(Nc2ccc(-c3ccccc3)nn2)c1 [Compound A45] |
| < 30% | 30 to 60% | 30 to 60% | ≥ 60% | O=C(NCc1ccccc1)c1cccc(Nc2ccc(-c3ccccc3)nn2)c1 [Compound A75] |
| < 30% | < 30% | ≥ 60% | ≥ 60% | CC(C)c1ccc(CNC(=O)c2cccc(Nc3ccc(-c4ccc(F)cc4)nn3)c2)cc1 [Compound A36] |
| < 30% | 30 to 60% | ≥ 60% | ≥ 60% | CCCCNC(=O)c1cccc(Nc2ccc(-c3ccccc3)nn2)c1 [Compound A65] |
| < 30% | 30 to 60% | ≥ 60% | – | O=C(Nc1ccc(N2CCOCC2)cc1)c1cccc(Nc2ncc(-c3cccc(F)c3)cn2)c1 [Compound A84] |
| < 30% | < 30% | ≥ 60% | ≥ 60% | Cc1ccc(CNC(=O)c2cccc(Nc3ccc(-c4ccccc4)nn3)c2)o1 [Compound A8] |
| < 30% | < 30% | ≥ 60% | ≥ 60% | O=C(NCCc1ccccc1)c1cccc(Nc2ccc(-c3ccc(F)cc3)nn2)c1 [Compound A4] |
| < 30% | ≥ 60% | 30 to 60% | ≥ 60% | O=C(NCc1ccccc1Cl)c1cccc(Nc2ccc(-c3ccccc3)nn2)c1 [Compound A46] |
| < 30% | 30 to 60% | ≥ 60% | ≥ 60% | COc1cccc(CNC(=O)c2cccc(Nc3ccc(-c4ccccc4)nn3)c2)c1 [Compound A76] |
| < 30% | 30 to 60% | ≥ 60% | ≥ 60% | O=C(NCc1ccc(Br)cc1)c1cccc(Nc2ccc(-c3ccccc3)nn2)c1 [Compound A43] |
| < 30% | < 30% | ≥ 60% | ≥ 60% | CC(C)CNC(=O)c1cccc(Nc2ccc(-c3ccc(F)cc3)nn2)c1 [Compound A11] |
| < 30% | < 30% | ≥ 60% | ≥ 60% | O=C(NC1CCCC1)c1cccc(Nc2ccc(-c3ccccc3)nn2)c1 [Compound A63] |
| < 30% | < 30% | ≥ 60% | ≥ 60% | Cc1ccc(CNC(=O)c2cccc(Nc3ccc(-c4ccc(F)cc4)nn3)c2)cc1 [Compound A22] |
